The source of these data is publication PMC7491426 (Frontiers in Chemistry, 2020).

As a reminder, the IC50 is the midpoint of a concentration-inhibition curve. The term melting point denotes the temperature of the solid-liquid transition.

Several values for one entry are separate records, joined by “and”; a condition that tells them apart may be missing. Equal values may be shown once. Read-outs that look alike come from different tables or passages of the source.

Series [1] concerns the target T1, HNE (human neutrophil elastase) (Homo sapiens, UniProt P08246).
T1 construct: purchased Calbiochem
T1 sequence (P08246 30-267): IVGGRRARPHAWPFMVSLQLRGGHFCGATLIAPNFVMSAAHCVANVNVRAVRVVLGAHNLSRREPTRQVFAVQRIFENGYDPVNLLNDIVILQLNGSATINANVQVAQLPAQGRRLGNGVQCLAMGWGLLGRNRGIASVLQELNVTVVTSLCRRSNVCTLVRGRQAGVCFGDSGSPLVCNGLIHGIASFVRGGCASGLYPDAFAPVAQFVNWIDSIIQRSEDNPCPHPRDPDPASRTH
As to the kind of experiment: HNE inhibition assay (fluorogenic substrate cleavage). Format: biochemical. The method, then: Compounds were dissolved in 100% DMSO at 5 mM stock concentrations. […] HNE inhibition assays were performed in black flat-bottom 96-well microtiter plates. Briefly, a solution containing 200 mM Tris–HCl, pH 7.5, 0.01% bovine serum albumin, 0.05% Tween®-20, and 20 mU/mL of HNE (Calbiochem) was added to wells containing different concentrations of each compound. The reaction was initiated by addition of 25 μM elastase substrate (N-methylsuccinyl-Ala-Ala-Pro-Val-7-amino-4-methylcoumarin, Calbiochem) in a final reaction volume of 100 μL/well. Kinetic measurements were obtained every 30 s for 10 min at 25°C using a Fluoroskan Ascent FL fluorescence microplate reader (Thermo Electron, MA) with excitation and emission wavelengths of 355 and 460 nm, respectively. For all compounds tested, the concentration of inhibitor that caused 50% inhibition of the enzymatic reaction (IC50) was calculated by plotting % inhibition vs. logarithm of inhibitor concentration (at least six points).

The nature of series [2]: Spontaneous hydrolysis (chemical stability) in aqueous phosphate buffer. The class given is physicochemical. Particulars: for half-life: phosphate buffer, pH 7.3, 0.05 M phosphate buffer, read-out: t1/2 for the spontaneous hydrolysis (converted); for half-life / t1/2 for the spontaneous hydrolysis: pH 7.3, 25°C; for t1/2 for the spontaneous hydrolysis: 0.05 M phosphate buffer. Here is the method:
Spontaneous hydrolysis of selected derivatives was evaluated at 25°C in 0.05 M phosphate buffer, pH 7.3. Kinetics of compound hydrolysis was monitored by measuring changes in absorbance spectra over time using a SpectraMax ABS Plus microplate spectrophotometer (Molecular Devices, Sunnyvale, CA). Absorbance (At) at the characteristic absorption maxima of each compound was monitored over time until no further absorbance decreases occurred (A∞). Using these measurements, we created semilogarithmic plots of log(At-A∞) vs. time, and k′ values were determined from the slopes of these plots. Half-conversion times were calculated using t1/2 = 0.693/k′.
Spontaneous hydrolysis rates of the inhibitors were measured in phosphate buffer at pH 7.3 and 25°C.

The target of series [3] is T1, HNE (human neutrophil elastase). As to the kind of experiment: Persistence of HNE inhibition over extended period of time (16 h). Particulars: monitored during 16 h in the presence of 10 μM inhibitor. Format: biochemical. The text has this:
The relatively high enzymatic stability of HNE allowed us to evaluate reversibility of the enzyme inhibition over time.

[4] abbreviates: mean ± SD of three independent experiments, read-out: IC50 (HNE inhibitory activity).
[5] abbreviates: restated in Table 5 beside docking geometry, read-out: IC50.

With `CC(C)(C)C(=O)Oc1ccc(S(=O)(=O)n2nc(C#N)c3ccccc32)cc1` [Compound 3d, 4-[(3-Cyano-1H-indazol-1-yl)sulfonyl]phenyl pivalate], the melting point was 155 to 158 °C. For the same compound, the IC50 in series [1] (setting [4]) was 76 ± 11 nM. Also, the half-life in series [2] is 6.1 h. Also, the “Remaining HNE activity” value in series [3] turned out to be 4.3 ± 0.3%.
`CC(C)(C)C(=O)Oc1ccc(S(=O)(=O)n2cc(C#N)c3ccccc32)cc1` [Compound 3c, 4-[(3-Cyano-1H-indol-1-yl)sulfonyl]phenyl pivalate] had a melting point of 133 to 136 °C. Besides, the IC50 in series [1] (setting [4]) was < 100 nM and 49 nM. In addition, in series [2], the “t1/2 for the spontaneous hydrolysis” value came to 14.4 h and the half-life is greater than 9 h. For the same compound, the “Remaining HNE activity” value in series [3] is given as 2.0 ± 0.4%.
Regarding `CC(C)(C)C(=O)Oc1ccc(S(=O)(=O)n2nc(C(F)(F)F)c3cccnc32)cc1` [Compound 3k, 4-{[3-(Trifluoromethyl)-1H-pyrazolo[3,4-b]pyridin-1-yl]sulfonyl}phenyl pivalate], the melting point is 135 to 138 °C. The IC50 in series [1] (setting [4]) came out at 135 ± 37 nM. Also, the half-life in series [2] was 1.3 h.
Take `CC(C)(C)C(=O)Oc1ccc(S(=O)(=O)n2ncc(=O)c3ccccc32)cc1` [Compound 9a, 4-[(4-Oxocinnolin-1(4H)-yl)sulfonyl]phenyl pivalate]: the melting point was 116 to 119 °C. Besides, the IC50 in series [1] (setting [4]) stood at 19 ± 5 nM. Also, the half-life in series [2] is 2.1 h. For the same compound, the “Remaining HNE activity” value in series [3] was found to be 2.2 ± 0.1%.
Compound `CCOC(=O)c1nn(S(=O)(=O)c2ccc(OC(=O)C(C)(C)C)cc2)c2ccc([N+](=O)[O-])cc12` [Compound 3g, Ethyl 5-nitro-1-{[4-(pivaloyloxy)phenyl]sulfonyl}-1H-indazole-3-carboxylate] had a melting point of 185 to 188 °C. In addition, the IC50 in series [1] (setting [4]) was determined as 23 ± 10 nM. In series [2], the half-life was 1.8 h. Besides, the “Remaining HNE activity” value in series [3] amounted to 20.1 ± 1.6%.
As to `CCOC(=O)c1nn(C(=O)c2cccc(C)c2)c2ccc(NS(=O)(=O)c3ccc(OC(=O)C(C)(C)C)cc3)cc12` [Compound 7e, Ethyl 1-(3-methylbenzoyl)-5-{[4-(pivaloyloxy)phenyl]sulfonamido}-1H-indazole-3-carboxylate], the melting point lay within 180 to 182 °C. The IC50 in series [1] (setting [4]) amounted to 460 ± 120 nM. Also, the IC50 in series [1] (setting [5]) is 460 nM. In addition, the half-life in series [2] was 5.8 h.
Consider `CCOC(=O)c1nn(C)c2ccc(NS(=O)(=O)c3ccc(OC(=O)C(C)(C)C)cc3)cc12` [Compound 7d, Ethyl 1-methyl-5-{[4-(pivaloyloxy)phenyl]sulfonamido}-1H-indazole-3-carboxylate], for which the melting point was 130 to 133 °C. In addition, the IC50 in series [1] (setting [4]) is < 100 nM and 86 nM. Moreover, the IC50 in series [1] (setting [5]) was 86 nM. Further, in series [2], the “t1/2 for the spontaneous hydrolysis” value was found to be 16.5 h and the half-life was greater than 9 h. Further, the “Remaining HNE activity” value in series [3] is on record as 9.1 ± 2.5%.
In turn, `CC(C)(C)C(=O)Oc1ccc(S(=O)(=O)n2cc(C#N)c3cccnc32)cc1` [Compound 3i, 4-[(3-Cyano-1H-pyrrolo[2,3-b]pyridin-1-yl]sulfonyl)phenyl pivalate] registered a melting point of 176 to 179 °C. Besides, in series [1] (setting [4]), the IC50 turned out to be 55 ± 12 nM. Further, in series [2], the half-life is 1.8 h. Further, the “Remaining HNE activity” value in series [3] came to 2.6 ± 0.5%.
On to `CC(C)(C)C(=O)Oc1ccc(S(=O)(=O)n2nc(C#N)c3cccnc32)cc1` [Compound 3l, 4-[(3-Cyano-1H-pyrazolo[3,4-b]pyridin-1-yl)sulfonyl]phenyl pivalate], for which the melting point was in the range of 166 to 169 °C. For the same compound, in series [1] (setting [4]), the IC50 worked out at 66 ± 9 nM. Further, the half-life in series [2] is 3.5 h. Also, the “Remaining HNE activity” value in series [3] is listed as 4.5 ± 1.7%.
As to `CCOC(=O)c1cn(S(=O)(=O)c2ccc(OC(=O)C(C)(C)C)cc2)c2ccccc12` [Compound 3a, Ethyl 1-{[4-(pivaloyloxy)phenyl]sulfonyl}-1H-indole-3-carboxylate], the melting point lay in the range of 118 to 121 °C. Also, in series [1] (setting [4]), the IC50 was < 100 nM and 30 nM. The IC50 in series [1] (setting [5]) amounted to 30 nM. Moreover, in series [2], the “t1/2 for the spontaneous hydrolysis” value was determined as 9.6 h and the half-life is greater than 9 h. Also, the “Remaining HNE activity” value in series [3] came to 5.5 ± 1.8%.
The compound `Cn1nc(C#N)c2cc(NS(=O)(=O)c3ccc(OC(=O)C(C)(C)C)cc3)ccc21` [Compound 7c, 4-[N-(3-Cyano-1-methyl-1H-indazol-5-yl)sulfamoyl]phenyl pivalate] came in with a melting point of 162 to 165 °C. Besides, in series [1] (setting [4]), the IC50 turned out to be 394 ± 38 nM. Also, the half-life in series [2] is 1.5 h.
For `CCOC(=O)c1cn(C)c2ccc(NS(=O)(=O)c3ccc(OC(=O)C(C)(C)C)cc3)cc12` [Compound 7a, Ethyl 1-methyl-5-{[4-(pivaloyloxy)phenyl]sulfonamido}-1H-indole-3-carboxylate], the IC50 in series [1] (setting [4]) was determined as 233 ± 76 nM. For the same compound, the half-life in series [2] was 6.8 h.
On to `CCOC(=O)c1cn(C(=O)c2cccc(C)c2)c2ccc(NS(=O)(=O)c3ccc(OC(=O)C(C)(C)C)cc3)cc12` [Compound 7b, Ethyl 1-(3-methylbenzoyl)-5-{[4-(pivaloyloxy)phenyl]sulfonamido}-1H-indole-3-carboxylate], for which the melting point was in the range of 172 to 175 °C. Moreover, the IC50 in series [1] (setting [4]) came out at 5200 ± 140 nM. In series [1] (setting [5]), the IC50 amounted to 5200 nM. In series [2], the half-life was 5.3 h.
Take `CC(C)(C)C(=O)Oc1ccc(S(=O)(=O)n2cc(-c3ccccc3)c(=O)o2)cc1` [Compound 11, 4-[(5-Oxo-4-phenylisoxazol-2(5H)-yl)sulfonyl]phenyl Pivalate]: the melting point lay in the range of 166 to 168 °C. Moreover, the IC50 in series [1] (setting [4]) amounted to 290 ± 40 nM.
As for `Cc1cccc(C(=O)Nc2nn(S(=O)(=O)c3ccc(OC(=O)C(C)(C)C)cc3)c3ccccc23)c1` [Compound 4, 4-{[3-(3-Methylbenzamido)-1H-indazol-1-yl]sulfonyl}phenyl pivalate], the IC50 in series [1] (setting [4]) was determined as 62 ± 12 nM. The half-life in series [2] is 6.4 h. The “Remaining HNE activity” value in series [3] is 8.6 ± 1.7%.
On to `CCOC(=O)c1nn(S(=O)(=O)c2ccc(OC(=O)C(C)(C)C)cc2)c2ccccc12` [Compound 3f, Ethyl 1-{[4-(pivaloyloxy)phenyl]sulfonyl}-1H-indazole-3-carboxylate], for which the melting point was in the range of 132 to 135 °C. Further, the IC50 in series [1] (setting [4]) is < 100 nM and 15 nM. In addition, in series [2], the “t1/2 for the spontaneous hydrolysis” value was found to be 10.5 h and the half-life is greater than 9 h. Further, in series [3], the “Remaining HNE activity” value stood at 5.9 ± 1.2%.
As to `CC(C)(C)C(=O)Oc1ccc(S(=O)(=O)Nc2ccccc2C(=O)NCC(=O)O)cc1` [Sivelestat, reference compound], in series [3], the “Remaining HNE activity” value is given as 3.7 ± 0.1%.
For the compound `CC(C)(C)C(=O)Oc1ccc(S(=O)(=O)n2nc(C#N)c3cc([N+](=O)[O-])ccc32)cc1` [Compound 3e, 4-[(3-Cyano-5-nitro-1H-indazol-1-yl)sulfonyl]phenyl pivalate], the melting point lay in the range of 183 to 186 °C. Further, the IC50 in series [1] (setting [4]) is 93 ± 27 nM. In addition, the half-life in series [2] was 0.4 h. Moreover, in series [3], the “Remaining HNE activity” value was 41.7 ± 3.2%.
As to `Cc1c(-c2ccccc2)c(=O)on1S(=O)(=O)c1ccc(OC(=O)C(C)(C)C)cc1` [G, reference compound], in series [2] (data not shown), the “Chemical stability in aqueous buffer” value is listed as “excellent chemical stability in aqueous buffer”. Further, the half-life in series [2] was 5.8 h.
`Cc1noc(-c2cn(S(=O)(=O)c3ccc(OC(=O)C(C)(C)C)cc3)c3ncccc23)n1` [Compound 3j, 4-{[3-(3-Methyl-1,2,4-oxadiazol-5-yl)-1H-pyrrolo[2,3-b]pyridin-1-yl]sulfonyl}phenyl pivalate]: the melting point was in the range of 164 to 167 °C. Moreover, the IC50 in series [1] (setting [4]) amounted to 43 ± 14 nM. The half-life in series [2] is 2.5 h. The “Remaining HNE activity” value in series [3] was 26.2 ± 3.4%.
In turn, `CCOC(=O)c1cn(S(=O)(=O)c2ccc(OC(=O)C(C)(C)C)cc2)c2ccc([N+](=O)[O-])cc12` [Compound 3b, Ethyl 5-nitro-1-{[4-(pivaloyloxy)pheny]sulfonyl}-1H-indole-3-carboxylate] came in with a melting point of 170 to 173 °C. In addition, the IC50 in series [1] (setting [4]) came to 25 ± 8 nM. For the same compound, the half-life in series [2] is 6.1 h. Also, the “Remaining HNE activity” value in series [3] was 20.5 ± 1.7%.
